Where two headings read alike, the source gives them in different places.
Columns and labels:
[1] = biological target: T1, EGFR protein in NCI-H1975 EGFR-L858R-T790M-C797S cells (Homo sapiens, UniProt P00533, C797S/L858R/T790M); experiment: Degradation activity on EGFR protein in NCI-H1975 EGFR-L858R-T790M-C797S cells, Method II (western blot, 48 h); type: cell-based; conditions: 48 h incubation, EGFR protein relative to DMSO control
T1 construct: expressed in transfected cells; host or cells: NCI-H1975 EGFR-L858R-T790M-C797S (kept under hygromycin selection)
Procedure: Protein sample preparation: NCI-H1975 EGFR-L858R-T790M-C797S cells were cultured in an incubator at 37° C. with 5% CO2, and the culture medium was RPMI1640+10% FBS+100 μg/mL hygromycin. The cells in the logarithmic phase were collected, and the cell suspension was adjusted to an appropriate concentration with a hygromycin-free culture medium, plated on a 6-well plate at a density of 350000 cells/well and a volume of 2 mL, and cultured overnight in an incubator at 37° C. with 5% CO2. The next day, the compounds at different concentrations were added. DMSO control wells were provided, wherein the concentration of DMSO in all wells was 0.1%. The 6-well plate was cultured in an incubator at 37° C. with 5% CO2 for 48 h, and then 30 μL of RIPA lysates (Beyotime, Cat. P0013B) containing protease inhibitors (Beyotime, Cat. P0013B) were added. The mixtures were lysed on ice for 30 min. Centrifugation was carried out at 13000 rpm/min at 4° C. for 20 minutes to collect protein supernatant samples, and protein quantification was performed by the BCA method. Western Blot detection samples were prepared.
Western blot detection: 20 μg of protein samples were added to each well, subjected to polyacrylamide gel electrophoresis and transferred to a membrane, and then diluted anti-EGFR (CST, Cat. 4267S) and […] (Kangchen, Cat. KC-5G4) antibodies were added and incubated overnight at 4° C. After washing the membrane, diluted goat anti-rabbit (Licor, Cat. 926-32211) and goat anti-mouse (Licor, Cat. 926-68070) antibodies were added and incubated in the dark for 45 min. Scanning and detection at wavelengths of 700 nm and 800 nm were performed with a far-infrared imaging system (Odyssey).
According to formula (3), the expression level of EGFR protein in the cells relative to the DMSO control group was calculated after incubation with different concentrations of compounds. wherein EGFRcompound was the fluorescence value of EGFR protein after incubation with compounds, and EGFRvehicle was the fluorescence value of EGFR protein in the DMSO control group. Using the Origin 9.2 software, the drug concentration DC50 values when the expression level of EGFR protein was 50% relative to the DMSO control group were calculated.

[2] = system: NCI-H1975 (EGFR-L858R-T790M) cells; experiment: Inhibitory activity on proliferation of NCI-H1975 (EGFR-L858R-T790M) cells (CTG, 72 h); type: cell-based; conditions: Homo sapiens
Summary of the method: (§1)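 Cells plated at 1000/well (NCI-H1975, RPMI1640+10% FBS) or 3000/well (A431, DMEM+10% FBS), dosed next day with compounds (0.1% DMSO final) for 72 h at 37 °C, 5% CO2. Viability by CTG luminescence, normalised to vehicle control; IC50 from nonlinear-regression dose-survival curves.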

[3] = system: NCI-H1975 EGFR-L858R-T790M-C797S cells; experiment: Inhibitory activity on proliferation of NCI-H1975 EGFR-L858R-T790M-C797S cells (CellTiter-Glo, 72 h); type: cell-based; conditions: Homo sapiens
Summary of the method: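 Cells (1500/well) exposed to graded compound concentrations for 72 h at 37 °C in hygromycin-free RPMI1640 + 10% FBS, 0.1% DMSO vehicle. Viability by CellTiter-Glo luminescence relative to vehicle; IC50 from nonlinear sigmoidal dose-survival fit.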

A431 (EGFR-WT) cells = experiment: Inhibitory activity on proliferation of A431 (EGFR-WT) cells (CTG, 72 h); type: cell-based; conditions: Homo sapiens, A-431
Summary of the method: as §1

[4] = Pharmacokinetic test in mice; type: in vivo; conditions: male, ICR, mouse, po, administration i.g. (10 mg/kg), plasma
Summary of the method: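 Male ICR mice (20-25 g), fasted 12-14 h before dosing and fed 4 h after, received a single intravenous or intragastric dose. Orbital plasma sampled from 0 to 24 h (5 min-24 h points); LC-MS/MS quantitation for PK parameters and bioavailability.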

T1 sequence (P00533 25-1210 T790M/C797S/L858R): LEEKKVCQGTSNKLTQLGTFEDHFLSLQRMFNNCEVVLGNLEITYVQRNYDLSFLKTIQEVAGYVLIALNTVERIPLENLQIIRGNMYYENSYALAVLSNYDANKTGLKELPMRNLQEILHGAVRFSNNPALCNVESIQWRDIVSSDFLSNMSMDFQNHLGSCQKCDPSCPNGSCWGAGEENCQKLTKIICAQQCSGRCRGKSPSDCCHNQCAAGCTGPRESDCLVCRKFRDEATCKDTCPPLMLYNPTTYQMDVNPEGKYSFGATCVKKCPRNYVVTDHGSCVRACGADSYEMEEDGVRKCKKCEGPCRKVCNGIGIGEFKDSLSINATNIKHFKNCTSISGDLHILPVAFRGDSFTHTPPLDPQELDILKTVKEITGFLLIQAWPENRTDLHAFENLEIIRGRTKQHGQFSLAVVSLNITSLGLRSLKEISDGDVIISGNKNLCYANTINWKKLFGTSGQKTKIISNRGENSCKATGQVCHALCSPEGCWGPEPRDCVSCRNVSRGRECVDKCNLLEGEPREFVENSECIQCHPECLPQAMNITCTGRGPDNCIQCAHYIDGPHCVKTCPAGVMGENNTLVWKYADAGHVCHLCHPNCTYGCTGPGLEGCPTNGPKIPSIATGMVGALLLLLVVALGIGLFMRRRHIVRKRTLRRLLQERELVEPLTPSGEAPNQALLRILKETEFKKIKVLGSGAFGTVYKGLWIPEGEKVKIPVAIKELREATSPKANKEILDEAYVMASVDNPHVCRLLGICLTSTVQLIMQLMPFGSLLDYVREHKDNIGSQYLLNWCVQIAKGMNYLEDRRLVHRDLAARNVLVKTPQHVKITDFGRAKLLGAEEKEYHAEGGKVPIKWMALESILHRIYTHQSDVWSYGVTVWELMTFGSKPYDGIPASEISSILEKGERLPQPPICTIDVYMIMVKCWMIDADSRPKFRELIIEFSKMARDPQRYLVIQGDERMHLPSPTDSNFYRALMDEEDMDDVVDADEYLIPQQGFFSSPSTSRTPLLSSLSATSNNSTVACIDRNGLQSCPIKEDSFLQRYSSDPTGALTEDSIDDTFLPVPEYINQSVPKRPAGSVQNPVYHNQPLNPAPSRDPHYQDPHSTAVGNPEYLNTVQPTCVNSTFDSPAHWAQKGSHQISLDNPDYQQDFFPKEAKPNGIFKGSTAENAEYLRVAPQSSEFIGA

DC50 [1]: < 100 nM | IC50 ([2]; read-out: IC50 (class symbol)): < 100 nM | IC50 ([2]; read-out: IC50 (value in brackets)): 42 nM | IC50 ([3]; read-out: IC50 (class symbol)): < 200 nM | IC50 ([3]; read-out: IC50 (value)): 135 nM | IC50 (A431 (EGFR-WT) cells): ≥ 10000 nM | AUC [4]: 71000 ng·h/mL | half-life [4]: 4.83 h
Structure (SMILES): COc1cc(N2CCC(CN3CCN(c4ccc5c(c4)C(=O)N(C4CCC(=O)NC4=O)C5=O)CC3)CC2)c(-c2cnn(C)c2)cc1Nc1ncc(Br)c(Nc2ccccc2P(C)(C)=O)n1 (centres unmarked) [Compound 108, 5-(4-((1-(4-((5-bromo-4-((2-(dimethylphosphoryl)phenyl)amino)pyrimidin-2-yl)amino)-5-methoxy-2-(1-methyl-1H-pyrazol-4-yl)phenyl)piperidin-4-yl)methyl)piperazin-1-yl)-2-(2,6-dioxopiperidin-3-yl)isoindoline-1,3-dione]

Source: patent publication US20240269298A1, “PHOSPHONYL DERIVATIVE, AND COMPOSITION AND PHARMACEUTICAL APPLICATION THEREOF” (XIZANG HAISCO PHARMACEUTICAL CO., LTD., priority 2021, published 2024)
